Measured values reported in PubChem BioAssay (NCI).
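Compound exposure: 48 hours, 5 concentrations, 96-well plates. GI50 is the concentration that inhibits growth by half. TGI denotes the concentration required for complete inhibition of growth.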

Columns and labels:
Experiment in all cases: NCI-60 cell line screen, 48 h
786-0 renal = tested on: 786-0 renal
UO-31 renal = tested on: UO-31 renal
EKVX NSCLC = tested on: EKVX NSCLC
SNB-75 CNS = tested on: SNB-75 CNS
SF-539 CNS = tested on: SF-539 CNS
ACHN renal = tested on: ACHN renal
HT29 colon = tested on: HT29 colon
K-562 leukemia = tested on: K-562 leukemia

| Structure (SMILES) | GI50 (786-0 renal) [µM] | TGI (786-0 renal) [µM] | GI50 (UO-31 renal) [µM] | TGI (UO-31 renal) [µM] | GI50 (EKVX NSCLC) [µM] | TGI (EKVX NSCLC) [µM] | GI50 (SNB-75 CNS) [µM] | TGI (SNB-75 CNS) [µM] | GI50 (SF-539 CNS) [µM] | TGI (SF-539 CNS) [µM] | GI50 (ACHN renal) [µM] | TGI (ACHN renal) [µM] | GI50 (HT29 colon) [µM] | TGI (HT29 colon) [µM] | GI50 (K-562 leukemia) [µM] | TGI (K-562 leukemia) [µM] |
| --- | --- | --- | --- | --- | --- | --- | --- | --- | --- | --- | --- | --- | --- | --- | --- | --- |
| Nc1nc(/C=C\c2ccccc2)nc(N2CCN(c3ccccc3)CC2)n1 | 16.2 | 34.8 | 38.4 | > 100 | 59.1 | > 100 | 22.2 | 69.4 | 41.1 | > 100 | 29.2 | > 100 | 18 | 41.8 | 20.5 | 65.1 |
| CCCCCCCCCCCCOC1C(CNC(=O)C2OC3OC(C)(C)OC3C2NC(=O)CN2CCN(c3ccc(OC)cc3)CC2)OC2OC(C)(C)OC21 (stereo not given) | 11.8 | 24 | 3.36 | 13.4 | 5.46 | 17 | 4.46 | 17.4 | 6.09 | 22 | 3.59 | 11.2 | 2.12 | 5.12 | 3.31 | 11.2 |
| O=C(c1ccc(Cl)cc1)C(O)c1ccc(Cl)cc1 (stereo not given) | – | > 100 | – | > 100 | – | > 100 | – | > 100 | – | > 100 | – | > 100 | – | > 100 | – | > 100 |
| CC(=O)[CH-]C(=O)c1ccccc1.CC(=O)[CH-]C(=O)c1ccccc1.O=S(=O)([O-])c1cc([O-])c2c([O-])cc(S(=O)(=O)[O-])cc2c1.[Na+].[Zr+4] | 70.8 | > 100 | > 100 | > 100 | > 100 | > 100 | 49 | > 100 | > 100 | > 100 | > 100 | > 100 | > 100 | > 100 | > 100 | > 100 |
| CC(=O)NNc1nc(C)c(C(/C=C/c2ccccc2O)=N/N=C(N)N)s1 | – | > 100 | – | > 100 | – | > 100 | – | > 100 | – | > 100 | – | > 100 | – | > 100 | – | > 100 |
| Cc1cc(-c2cc(O)ccc2Cl)cc2nnc(Nc3ccc(OCCN4CCCC4)cc3)nc12 | 0.186 | 0.343 | 1.3 | 2.73 | 1.57 | 3.27 | 0.824 | 2.22 | 1.04 | 2.32 | 1.43 | 2.83 | 1.93 | 3.91 | 0.0443 | 0.245 |
| C#CCN(c1ccc(C(=O)N[C@@H](CCC(=O)N[C@H](CCC(=O)O)C(=O)O)C(=O)O)cc1)C1CCc2cc3nc(CO)[nH]c(=O)c3cc21 (stereo not given in full) | 4.96 | > 100 | 3.74 | > 100 | > 100 | > 100 | > 100 | > 100 | 4.38 | > 100 | 5.64 | > 100 | > 100 | > 100 | > 100 | > 100 |
| CC[C@@H](C)/C=C(C)/C=C/C(=O)c1c(O)c(-c2ccc(O)cc2)cn(O)c1=O | 0.361 | 5.17 | 0.266 | 3.68 | 1.6 | 13.1 | 1.38 | 15.7 | 0.369 | 5.83 | 0.33 | 9.55 | 3.22 | 11.4 | 0.392 | > 41.2 |
| COc1ccc(/C=C2/SC(Nc3nc(-c4nc(NC5=NC(=O)/C(=C\c6ccc(OC)cc6)S5)sc4C)c(C)s3)=NC2=O)cc1 | 1.07 | 4.18 | 4.27 | > 32.2 | 0.213 | 2.43 | – | – | 1.36 | 3.95 | 0.838 | 9.74 | 1.99 | > 50 | 0.631 | > 16.2 |
| O=C1C=CC(=O)c2c(O)c3c(c(O)c21)C[C@H](O)[C@H](O)[C@@H]3O | – | 4.06 | – | > 24 | – | 6.15 | – | 7.99 | – | 9.16 | – | 8 | – | 5.83 | – | > 21.2 |
| CCCCCC/C=C\CCCCCCCCCC1=C(CN2CCN(C)CC2)C(=O)C=C(OC)C1=O | – | 2.9 | – | 9.2 | – | 27.9 | – | 16.6 | – | 40.1 | – | 13 | – | 23.9 | – | 6.32 |
| COc1cccc(C2SC(N)=Nc3c2c(C)nn3C(=O)Cc2ccccc2)c1 (stereo not given) | – | > 100 | – | > 100 | – | > 100 | – | > 100 | – | > 100 | – | > 100 | – | > 100 | – | > 100 |
| Oc1c(Cl)cc(Cl)c2ccc(Cn3cc(-c4ccc(C(F)(F)F)cc4)nn3)nc12 | 1.82 | 4.59 | 1.36 | 3.62 | 5.8 | 19.5 | 1.74 | 10.8 | 1.52 | 2.94 | 1.35 | 2.67 | 2.46 | 6.75 | 0.479 | > 100 |
| CC1NC(=O)C2=C1C(=O)NC(=O)C2 (stereo not given) | > 100 | > 100 | > 100 | > 100 | > 100 | > 100 | – | – | > 100 | > 100 | > 100 | > 100 | – | – | > 100 | > 100 |
| CO[C@H]1CC(O[C@@H]2/C(C)=C/C[C@@H]3C[C@@H](C[C@]4(CC[C@H](C)[C@@H](C5CCCCC5)O4)O3)OC(=O)[C@@H]3C=C(C)/C(=N/O)[C@H]4OC/C(=C\C=C\[C@@H]2C)[C@]43O)O[C@@H](C)C1O (stereo not given in full) | 1.14 | 2.62 | 0.769 | 1.98 | 0.951 | 2.64 | 0.867 | 2.57 | 0.948 | 1.93 | 0.994 | 2.01 | 0.966 | 2.05 | 1.17 | 2.67 |
| Cc1cc(C)c(-c2c(N)cc(Br)cc2Br)c(N)c1 | 7.75 | 21.6 | 5.4 | 20 | 5.15 | 26.3 | 2.48 | 10.1 | 2.94 | 9.87 | 10 | 22.8 | 3.49 | 13.1 | – | – |
| CC1=CC(C)(C)NN1C1=NS(=O)(=O)c2ccccc2N1C | – | > 100 | – | > 100 | – | > 100 | – | – | – | > 100 | – | > 100 | – | > 100 | – | > 100 |
